Reference: patent US20100179227A1, “Production method of hop preparation, hop preparation, anti-inflammatory agent, food product and beverage, and oral product” (priority 2006, published 2010)

Assays:
[1] = as described in Patent Documents 1, 2 and 5; cited from earlier work
[2] = test system: mRNA of COX-2 gene; assay: Suppression of COX-2 mRNA expression in gingival epithelial cells stimulated with P. gingivalis vesicles (real-time RT-PCR); format: cell-based; settings: human gingival epithelium-derived immortalized cells stimulated with P. gingivalis-derived vesicles; mRNA measured 24 hours after addition, standardized to GAPDH mRNA
Experimental: The expression levels of mRNA of COX-2 gene were determined.
The P. gingivalis-derived vesicles were prepared as follows: P. gingivalis strain (ATCC 33277) was cultured for 3 days and the cells were removed from the 500 ml culture by centrifugation and filtration. The supernatant was ultracentrifuged at 100,000 G at 4° C. for 1 hour to obtain the desired vesicles. The expression levels of mRNA of COX-2 gene were determined by measuring the amounts of mRNA by real-time RT-PCR 24 hours after addition of each substance. The PCR was performed by using primers specific for the COX-2 gene and amplification was carried out for 45 cycles. The amount of mRNA was standardized to the amount of mRNA of glyceraldehyde-3-phosphate dehydrogenase.
The 80% ethanol fraction obtained in Example 1 was fractionated by reverse-phase HPLC and the resulting fractions corresponding to the respective peaks were collected. As in Example 2, the fractions were incubated with human gingival epithelium-derived immortalized cells stimulated with the vesicles obtained from P. gingivalis (inflammation-inducing agent). The expression levels of mRNA of COX-2 were determined.

[3] = target: cyclooxygenase-1 (COX-1) (Homo sapiens, UniProt P23219); settings: according to Non-Patent Document 1; cited from earlier work
cyclooxygenase-1 (COX-1), sequence (P23219 24-599, species assumed): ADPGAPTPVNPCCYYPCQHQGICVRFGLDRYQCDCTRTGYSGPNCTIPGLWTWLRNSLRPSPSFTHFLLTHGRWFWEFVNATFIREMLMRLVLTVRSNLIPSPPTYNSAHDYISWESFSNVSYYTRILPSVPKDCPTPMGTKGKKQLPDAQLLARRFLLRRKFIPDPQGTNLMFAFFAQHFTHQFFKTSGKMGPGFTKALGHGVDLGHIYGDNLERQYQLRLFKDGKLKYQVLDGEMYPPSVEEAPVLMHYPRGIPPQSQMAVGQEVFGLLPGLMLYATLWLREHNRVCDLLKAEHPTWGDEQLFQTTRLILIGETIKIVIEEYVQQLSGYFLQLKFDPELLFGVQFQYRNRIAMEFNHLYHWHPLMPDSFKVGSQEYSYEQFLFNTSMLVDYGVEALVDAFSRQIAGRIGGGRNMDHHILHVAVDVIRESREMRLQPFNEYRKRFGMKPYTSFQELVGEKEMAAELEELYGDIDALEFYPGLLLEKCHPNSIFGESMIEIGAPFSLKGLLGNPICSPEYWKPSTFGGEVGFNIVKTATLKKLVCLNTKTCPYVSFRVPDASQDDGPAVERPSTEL

| Compound | anti-inflammatory activity [1] | suppression of the expression of mRNA of COX-2 gene [2] | inhibition of cyclooxygenase-1 (COX-1) [3] |
| --- | --- | --- | --- |
| O=c1c(O[C@@H]2O[C@H](CO)[C@@H](O)[C@H](O)[C@H]2O)c(-c2ccc(O)c(O)c2)oc2cc(O)cc(O)c12 [isoquercitrin, quercetin-3-O-β-D-glucopyranoside] | exhibit anti-inflammatory activity | activity |  |
| CC(C)C(=O)c1c(O)cc(O)cc1O[C@@H]1O[C@H](CO)[C@@H](O)[C@H](O)[C@H]1O [MPPG, 2-[(2-methylpropanyl)-phloroglucinol]-1-O-β-D-glucopyranoside] |  | activity | inhibits cyclooxygenase-1 (COX-1) |
| O=c1c(O[C@@H]2O[C@H](CO)[C@@H](O)[C@H](O)[C@H]2O)c(-c2ccc(O)cc2)oc2cc(O)cc(O)c12 [astragalin, kaempferol-3-O-β-D-glucopyranoside] | exhibit anti-inflammatory activity | activity |  |
